Measurements reported in US6468991B1, “Method of treating rhinoviral infections” (Cyclis Pharmaceuticals, Inc., priority 1997, dated 2002).
Read-outs that look alike come from different tables or passages of the source.

Key:
[1] = system: Rhinovirus (RV) type 2, strain GPH; experiment: Cytopathogenic effect (CPE) inhibition assay; conditions: for EC50: A549 cells
[2] = system: A-549 (human lung carcinoma) cells; experiment: Cytotoxicity by microscopic morphological changes in uninfected toxicity control wells
[3] = system: Rhinovirus Type 2; experiment: Rhinovirus yield reduction assay; conditions: for ED50 (virus yield): second experiment
[4] = drug present without medium change

EC50 ([1]; Enterovirus, A549, 72 h, read-out: ED50, Expt. 2, 3 days' incubation at 37° C., drug present without medium change) | EC50 ([1]; Enterovirus, A549, 120 h, read-out: ED50, Expt. 1, 5 days' incubation at 37° C., drug present without medium change) | EC50 ([1]; Enterovirus, A549, read-out: ED50, Expt. 1, 5 days' incubation at 37° C., drug changed every 24 hours) | EC50 ([1]; Enterovirus, A549, read-out: ED50, Expt. 2, 3 days' incubation at 37° C., drug changed every 24 hours) | Molecule | inhibition of viral CPE ([1]; both methods, both experiments, compared with ribavirin) | EC50 ([1]; read-out: ED50, Expt. 1, 5 days' incubation at 37° C., drug changed every 24 hours) | EC50 ([1]; read-out: ED50, Expt. 1, 5 days' incubation at 37° C., drug present without medium change) | EC50 ([1]; read-out: ED50, Expt. 2, 3 days' incubation at 37° C., drug changed every 24 hours) | EC50 ([1]; read-out: ED50, Expt. 2, 3 days' incubation at 37° C., drug present without medium change) | cytotoxicity observed ([2]; both experiments, A549 cells) | conclusion on inhibition of type 2 rhinovirus ([3]; overall conclusion from CPE and virus yield results) | ED90 concentration (virus yield) ([3]; same whether compound left on the cells or freshly added daily) | ED50 (virus yield) ([3]; drug changed every 24 hours) | ED50 (virus yield) [3, 4] | CD50 ([2]; Expt. 1, 5 days' incubation at 37° C., drug changed every 24 hours, A549 cells) | CD50 ([2]; Expt. 1, 5 days' incubation at 37° C., drug present without medium change, A549 cells) | CD50 ([2]; Expt. 2, 3 days' incubation at 37° C., drug changed every 24 hours, A549 cells) | CD50 ([2]; Expt. 2, 3 days' incubation at 37° C., drug present without medium change, A549 cells) | CD50 ([2]; Table 2, second experiment, drug changed every 24 hours) | CD50 ([2]; Table 2, second experiment, drug present without medium change)
 |  |  |  | 2′,3′-cyclophosphateadenylyl(2′,5′)adenylyl-(2′,5′)adenosine [Papirine AIII] | significant inhibition of viral CPE was seen that exceeded the activity of the known positive inhibitor, ribavirin | 24 µM | 25 µM | 63 µM | 63 µM | no cytotoxicity was observed | significant inhibitor of type 2 rhinovirus | 8 µM | 8 µM | 8 µM |  |  |  |  |  | 
410 µM | 610 µM | 1190 µM | 186 µM | NC(=O)c1ncn([C@@H]2O[C@H](CO)[C@@H](O)[C@H]2O)n1 [Ribavirin] |  |  |  |  |  |  |  |  | 102 µM | 53 µM | 2290 µM | 2290 µM | 740 µM | 740 µM | 740 µM | 740 µM
